Series [1] can be described thus: Drug uptake in nucleus of human T24 cells at 100 nM after 30 mins by confocal microscopic analysis. The series is classed as ADME, cell-based. Conditions: t-24, 0.5 h, 0.1 µM; call rule not given here.
For series [2], the system named is T-24. The experiment in a line: Cytotoxicity against human T24 cells assessed as growth inhibition after 24 hrs by MTT assay in absence of light. The series is classed as cell-based. Conditions: T-24, 24 h. (In general: Formazan colour is commonly taken as a measure of viable cells.)
Series [3] deals with T-24. The experiment in a line: Phototoxicity against human T24 cells assessed as growth inhibition incubated for 4 hrs followed by irradiation for 15 mins measured after 24 hrs by MTT assay. The series is classed as functional, cell-based. Conditions: T-24, light or radiation study.
The nature of series [4]: Drug uptake in endoplasmic reticulum of human T24 cells at 100 nM after 30 mins by confocal microscopic analysis. The series is classed as ADME, cell-based. Conditions: t-24, 0.5 h, 0.1 µM.
Series [5] in a line: Drug uptake in lysosome of human T24 cells at 100 nM after 30 mins by confocal microscopic analysis. The series is classed as ADME, cell-based. Conditions: t-24, 0.5 h, 0.1 µM.

The term IC50 denotes the concentration needed to halve the response being measured.

On to `CC1=C(I)C(C)=[N+]2C1=C(c1ccc(-c3cn(CC(=O)OC(C)(C)C)nn3)cc1)c1c(C)c(I)c(C)n1[B-]2(F)F`, for which the Drug uptake entry in series [1] is given as “Not Active”; in series [4], “Not Active”; in series [5], “Active”. In addition, the IC50 in series [2] was over 10000 nM; in series [3], 42 nM.
Regarding `CC1=C(I)C(C)=[N+]2C1=C(c1ccc(-c3cn(CC(=O)N4CCC[C@H]4C(=O)N[C@@H](CCCCN)C(=O)N[C@@H](CCCCN)C(=O)N[C@@H](CCCCN)C(=O)N[C@@H](CCCNC(=N)N)C(=O)N[C@@H](CCCCN)C(=O)N[C@H](C(N)=O)C(C)C)nn3)cc1)c1c(C)c(I)c(C)n1[B-]2(F)F`, the Drug uptake result in series [1] is “Not Active”; in series [4] it was “Active”; in series [5], “Active”. Moreover, the IC50 in series [2] was over 10000 nM; in series [3], 16 nM.

(Values after ChEMBL document CHEMBL2384916, “Synthesis and in vitro evaluation of a PDT active BODIPY-NLS conjugate” (Bioorg Med Chem Lett, 2013).)
